Laboratory results reported in PubChem BioAssay (NCI).
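Cultured in 96-well plates, cells were exposed to test compound for 48 hours across five concentrations. GI50: concentration for 50% inhibition of growth. TGI is the concentration that stops growth completely.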

Legend:
Experiment in all cases: inhibition of tumour cell growth, NCI panel, 48 h
CAKI-1 renal = system: CAKI-1 renal
NCI-H460 lung = system: NCI-H460 lung
RPMI-8226 leukemia = system: RPMI-8226 leukemia
U251 CNS = system: U251 CNS
SK-OV-3 ovarian = system: SK-OV-3 ovarian
T-47D breast = system: T-47D breast
UACC-257 melanoma = system: UACC-257 melanoma
OVCAR-5 ovarian = system: OVCAR-5 ovarian
RXF 393 renal = system: RXF 393 renal
SR leukemia = system: SR leukemia
HCT-116 colon = system: HCT-116 colon
K-562 leukemia = system: K-562 leukemia
SNB-75 CNS = system: SNB-75 CNS
OVCAR-8 ovarian = system: OVCAR-8 ovarian
HOP-62 NSCLC = system: HOP-62 NSCLC
A549 NSCLC = system: A549 NSCLC
DU-145 prostate = system: DU-145 prostate
BT-549 breast = system: BT-549 breast
HCC-2998 colon = system: HCC-2998 colon
KM12 colon = system: KM12 colon
A498 renal = system: A498 renal
NCI/ADR-RES ovarian = system: NCI/ADR-RES ovarian
NCI-H522 lung = system: NCI-H522 lung
MDA-MB-231 breast = system: MDA-MB-231 breast
TK-10 renal = system: TK-10 renal
MDA-MB-435 = system: MDA-MB-435
HS 578T breast = system: HS 578T breast
NCI-H23 lung = system: NCI-H23 lung
SW-620 colon = system: SW-620 colon
UO-31 renal = system: UO-31 renal
ACHN renal = system: ACHN renal
SK-MEL-28 melanoma = system: SK-MEL-28 melanoma
SF-295 CNS = system: SF-295 CNS
SNB-19 CNS = system: SNB-19 CNS
HCT-15 colon = system: HCT-15 colon
PC-3 prostate = system: PC-3 prostate
OVCAR-3 ovarian = system: OVCAR-3 ovarian
MOLT-4 leukemia = system: MOLT-4 leukemia
UACC-62 melanoma = system: UACC-62 melanoma
SF-539 CNS = system: SF-539 CNS
NCI-H226 lung = system: NCI-H226 lung
SF-268 CNS = system: SF-268 CNS
LOX IMVI melanoma = system: LOX IMVI melanoma
M14 melanoma = system: M14 melanoma
EKVX NSCLC = system: EKVX NSCLC
HOP-92 NSCLC = system: HOP-92 NSCLC
SN12C renal = system: SN12C renal
IGROV1 ovarian = system: IGROV1 ovarian
CCRF-CEM leukemia = system: CCRF-CEM leukemia
OVCAR-4 ovarian = system: OVCAR-4 ovarian
MCF7 breast = system: MCF7 breast
MALME-3M melanoma = system: MALME-3M melanoma
HL-60(TB) leukemia = system: HL-60(TB) leukemia
SK-MEL-5 melanoma = system: SK-MEL-5 melanoma
SK-MEL-2 melanoma = system: SK-MEL-2 melanoma
HT29 colon = system: HT29 colon
786-0 renal = system: 786-0 renal
COLO 205 colon = system: COLO 205 colon

Question: How did the GI50 (CAKI-1 renal) turn out when `CN1C(=O)C(C)(C)Oc2c(-c3cn(C)c(=O)c4[nH]ccc34)cc(S(C)(=O)=O)cc21` was run?
Answer: 0.271 µM

Question: What about the TGI (CAKI-1 renal) of the same compound?
Answer: 16.1 µM

Question: And the GI50 (NCI-H460 lung)?
Answer: 2.29 µM

Question: What about the TGI (NCI-H460 lung) of the same compound?
Answer: > 100 µM

Question: And the GI50 (RPMI-8226 leukemia)?
Answer: 0.243 µM

Question: And the TGI (RPMI-8226 leukemia)?
Answer: 4.94 µM

Question: And the GI50 (U251 CNS)?
Answer: 1.52 µM

Question: And the TGI (U251 CNS)?
Answer: > 100 µM

Question: And the GI50 (SK-OV-3 ovarian)?
Answer: 0.705 µM

Question: What about the TGI (SK-OV-3 ovarian) of the same compound?
Answer: 7.04 µM

Question: What about the GI50 (T-47D breast) of the same compound?
Answer: 0.808 µM

Question: What about the TGI (T-47D breast) of the same compound?
Answer: > 100 µM

Question: And the GI50 (UACC-257 melanoma)?
Answer: 0.865 µM

Question: What about the TGI (UACC-257 melanoma) of the same compound?
Answer: > 100 µM

Question: What about the GI50 (OVCAR-5 ovarian) of the same compound?
Answer: 1.06 µM

Question: And the TGI (OVCAR-5 ovarian)?
Answer: > 100 µM

Question: What about the GI50 (RXF 393 renal) of the same compound?
Answer: 1.59 µM

Question: And the TGI (RXF 393 renal)?
Answer: 7.12 µM

Question: What about the GI50 (SR leukemia) of the same compound?
Answer: 0.469 µM

Question: And the TGI (SR leukemia)?
Answer: > 100 µM

Question: What about the GI50 (HCT-116 colon) of the same compound?
Answer: 1.13 µM

Question: And the TGI (HCT-116 colon)?
Answer: 12.2 µM

Question: What about the GI50 (K-562 leukemia) of the same compound?
Answer: 0.765 µM

Question: What about the TGI (K-562 leukemia) of the same compound?
Answer: > 100 µM

Question: What about the GI50 (SNB-75 CNS) of the same compound?
Answer: 0.155 µM

Question: And the TGI (SNB-75 CNS)?
Answer: 1.49 µM

Question: And the GI50 (OVCAR-8 ovarian)?
Answer: 1.81 µM

Question: What about the TGI (OVCAR-8 ovarian) of the same compound?
Answer: > 100 µM

Question: And the GI50 (HOP-62 NSCLC)?
Answer: 0.732 µM

Question: And the TGI (HOP-62 NSCLC)?
Answer: > 100 µM

Question: What about the GI50 (A549 NSCLC) of the same compound?
Answer: 0.989 µM

Question: And the TGI (A549 NSCLC)?
Answer: > 100 µM

Question: What about the GI50 (DU-145 prostate) of the same compound?
Answer: 3.85 µM

Question: And the TGI (DU-145 prostate)?
Answer: > 100 µM

Question: And the GI50 (BT-549 breast)?
Answer: 1.09 µM

Question: And the TGI (BT-549 breast)?
Answer: 14.7 µM

Question: And the GI50 (HCC-2998 colon)?
Answer: 1.24 µM

Question: And the TGI (HCC-2998 colon)?
Answer: 2.86 µM

Question: What about the GI50 (KM12 colon) of the same compound?
Answer: 1.44 µM

Question: What about the TGI (KM12 colon) of the same compound?
Answer: 16.1 µM

Question: And the GI50 (A498 renal)?
Answer: 1.11 µM

Question: And the TGI (A498 renal)?
Answer: 5.98 µM

Question: What about the GI50 (NCI/ADR-RES ovarian) of the same compound?
Answer: 14.3 µM

Question: What about the TGI (NCI/ADR-RES ovarian) of the same compound?
Answer: > 100 µM

Question: And the GI50 (NCI-H522 lung)?
Answer: 0.383 µM

Question: And the TGI (NCI-H522 lung)?
Answer: 5 µM

Question: What about the GI50 (MDA-MB-231 breast) of the same compound?
Answer: 0.664 µM

Question: What about the TGI (MDA-MB-231 breast) of the same compound?
Answer: > 100 µM

Question: And the GI50 (TK-10 renal)?
Answer: 0.495 µM

Question: What about the TGI (TK-10 renal) of the same compound?
Answer: 14.6 µM

Question: What about the GI50 (MDA-MB-435) of the same compound?
Answer: 0.637 µM

Question: And the TGI (MDA-MB-435)?
Answer: > 100 µM

Question: What about the GI50 (HS 578T breast) of the same compound?
Answer: 0.425 µM

Question: And the TGI (HS 578T breast)?
Answer: 6.71 µM

Question: What about the GI50 (NCI-H23 lung) of the same compound?
Answer: 1.71 µM

Question: What about the TGI (NCI-H23 lung) of the same compound?
Answer: 18.7 µM

Question: And the GI50 (SW-620 colon)?
Answer: 2.15 µM

Question: And the TGI (SW-620 colon)?
Answer: 19.2 µM

Question: What about the GI50 (UO-31 renal) of the same compound?
Answer: 0.431 µM

Question: And the TGI (UO-31 renal)?
Answer: > 100 µM

Question: And the GI50 (ACHN renal)?
Answer: 1.39 µM

Question: And the TGI (ACHN renal)?
Answer: > 100 µM

Question: And the GI50 (SK-MEL-28 melanoma)?
Answer: 3.92 µM

Question: What about the TGI (SK-MEL-28 melanoma) of the same compound?
Answer: > 100 µM

Question: And the GI50 (SF-295 CNS)?
Answer: 2.68 µM

Question: And the TGI (SF-295 CNS)?
Answer: > 100 µM

Question: And the GI50 (SNB-19 CNS)?
Answer: 1.6 µM

Question: And the TGI (SNB-19 CNS)?
Answer: > 100 µM

Question: And the GI50 (HCT-15 colon)?
Answer: 2.58 µM

Question: And the TGI (HCT-15 colon)?
Answer: 39.2 µM

Question: What about the GI50 (PC-3 prostate) of the same compound?
Answer: 2.01 µM

Question: What about the TGI (PC-3 prostate) of the same compound?
Answer: > 100 µM

Question: What about the GI50 (OVCAR-3 ovarian) of the same compound?
Answer: 0.999 µM

Question: And the TGI (OVCAR-3 ovarian)?
Answer: 5.17 µM

Question: And the GI50 (MOLT-4 leukemia)?
Answer: 1.42 µM

Question: And the TGI (MOLT-4 leukemia)?
Answer: > 100 µM

Question: And the GI50 (UACC-62 melanoma)?
Answer: 0.39 µM

Question: What about the TGI (UACC-62 melanoma) of the same compound?
Answer: 11.8 µM

Question: What about the GI50 (SF-539 CNS) of the same compound?
Answer: 0.58 µM

Question: And the TGI (SF-539 CNS)?
Answer: 40.3 µM

Question: What about the GI50 (NCI-H226 lung) of the same compound?
Answer: 2.26 µM

Question: What about the TGI (NCI-H226 lung) of the same compound?
Answer: > 100 µM

Question: What about the GI50 (SF-268 CNS) of the same compound?
Answer: 3.99 µM

Question: And the TGI (SF-268 CNS)?
Answer: > 100 µM

Question: What about the GI50 (LOX IMVI melanoma) of the same compound?
Answer: 0.462 µM

Question: And the TGI (LOX IMVI melanoma)?
Answer: 1.73 µM

Question: What about the GI50 (M14 melanoma) of the same compound?
Answer: 0.727 µM

Question: What about the TGI (M14 melanoma) of the same compound?
Answer: > 100 µM

Question: And the GI50 (EKVX NSCLC)?
Answer: 0.972 µM

Question: What about the TGI (EKVX NSCLC) of the same compound?
Answer: > 100 µM

Question: And the GI50 (HOP-92 NSCLC)?
Answer: 0.408 µM

Question: And the TGI (HOP-92 NSCLC)?
Answer: > 100 µM

Question: What about the GI50 (SN12C renal) of the same compound?
Answer: 2.68 µM

Question: What about the TGI (SN12C renal) of the same compound?
Answer: > 100 µM

Question: What about the GI50 (IGROV1 ovarian) of the same compound?
Answer: 0.89 µM

Question: What about the TGI (IGROV1 ovarian) of the same compound?
Answer: > 100 µM

Question: What about the GI50 (CCRF-CEM leukemia) of the same compound?
Answer: 1.45 µM

Question: What about the TGI (CCRF-CEM leukemia) of the same compound?
Answer: > 100 µM

Question: What about the GI50 (OVCAR-4 ovarian) of the same compound?
Answer: 0.741 µM

Question: And the TGI (OVCAR-4 ovarian)?
Answer: 33.6 µM

Question: And the GI50 (MCF7 breast)?
Answer: 0.338 µM

Question: And the TGI (MCF7 breast)?
Answer: > 100 µM

Question: What about the GI50 (MALME-3M melanoma) of the same compound?
Answer: 1.1 µM

Question: What about the TGI (MALME-3M melanoma) of the same compound?
Answer: 25.8 µM

Question: And the GI50 (HL-60(TB) leukemia)?
Answer: 0.281 µM

Question: What about the TGI (HL-60(TB) leukemia) of the same compound?
Answer: 0.847 µM

Question: What about the GI50 (SK-MEL-5 melanoma) of the same compound?
Answer: 1.34 µM

Question: And the TGI (SK-MEL-5 melanoma)?
Answer: 3.27 µM

Question: What about the GI50 (SK-MEL-2 melanoma) of the same compound?
Answer: 1.95 µM

Question: And the TGI (SK-MEL-2 melanoma)?
Answer: > 100 µM

Question: What about the GI50 (HT29 colon) of the same compound?
Answer: 0.339 µM

Question: And the TGI (HT29 colon)?
Answer: > 100 µM

Question: What about the GI50 (786-0 renal) of the same compound?
Answer: 2.06 µM

Question: What about the TGI (786-0 renal) of the same compound?
Answer: > 100 µM

Question: What about the GI50 (COLO 205 colon) of the same compound?
Answer: 0.469 µM

Question: And the TGI (COLO 205 colon)?
Answer: 10.5 µM
